Test results published in patent US20240132431A1, “METHOD FOR ALKYLATING ACIDIC FUNCTIONAL GROUP” (Chugai Seiyaku Kabushiki Kaisha, priority 2021, published 2024).

Target: T1, Bcl-2 protein (Recombinant Human Bcl-2 Protein) (Homo sapiens, UniProt P10415)
T1 construct: purchased Novus NBP2-34889
Assay: Binding evaluation of mixture library compounds to Bcl-2 using AS-MS (affinity selection mass spectrometry)
Settings: for ASMS ratio (%) n = 1 / ASMS ratio (%) n = 2: ASMS Ratio(%)=(A−C)/B×100; for ASMS ratio (%) n = 1: replicate n = 1; for ASMS ratio (%) n = 2: replicate n = 2
Outline: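 Readout is ASMS Ratio (%), (A−C)/B×100, from reversed-phase LC/MS of SEC-passed extracts, with protein-free unfiltered standard (B) and protein-free SEC blank (C). Recombinant human Bcl-2 at 20 μM final met ~1200 pooled compounds at […] each for 1 h, 23° C., dark, in Tris-HCl pH 7.4 buffer.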

[1] = AS-MS, mixture of 1200 compounds, Bcl-2
[2] = AS-MS on the mixture of 1200 library compounds

T1 sequence (P10415 whole entry): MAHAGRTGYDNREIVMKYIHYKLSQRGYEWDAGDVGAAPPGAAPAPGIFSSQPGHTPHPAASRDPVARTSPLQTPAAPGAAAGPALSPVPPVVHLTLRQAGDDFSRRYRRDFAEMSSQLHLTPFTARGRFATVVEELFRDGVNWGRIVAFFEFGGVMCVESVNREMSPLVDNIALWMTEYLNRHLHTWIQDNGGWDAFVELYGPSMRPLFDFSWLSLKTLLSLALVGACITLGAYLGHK

Compound: CCOc1cncc(-c2cc(CN3CCN(c4ccc(C(=O)NCC(F)(F)F)cc4)CC3)cc(OCC)c2)c1 [B1K056-01, 4-[4-[[3-Ethoxy-5-(5-ethoxypyridin-3-yl)phenyl]methyl]piperazin-1-yl]-N-(2,2,2-trifluoroethyl)benzamide]
- ASMS ratio (%) n = 1 [1]: 3.3%
- ASMS ratio (%) n = 2 [1]: 0.2%

Compound: CCOc1cncc(-c2ccc(CN3CCN(c4ccc(C(=O)NS(=O)(=O)CCC(F)(F)F)nn4)CC3)c(CC)c2)c1 [B2N076-01, 6-[4-[[4-(5-Ethoxypyridin-3-yl)-2-ethylphenyl]methyl]piperazin-1-yl]-N-(3,3,3-trifluoropropylsulfonyl)pyridazine-3-carboxamide]
- ASMS ratio (%) (n = 1): 0.0%
- ASMS ratio (%) (n = 2): 0.0%

Compound: CCOc1cccc(-c2ccc(CN3CCN(c4ccc(C(=O)NS(=O)(=O)c5ccc(NCCSc6ccccc6)c(C(F)(F)F)c5)nn4)CC3)cc2C)c1 [B2R073-01, 6-[4-[[4-(3-Ethoxyphenyl)-3-methylphenyl]methyl]piperazin-1-yl]-N-[4-(2-phenylsulfanylethylamino)-3-(trifluoromethyl)phenyl]sulfonylpyridazine-3-carboxamide]
- ASMS ratio (%) (n = 1): 24.0%
- ASMS ratio (%) (n = 2): 0.0%

Compound: CCOc1cncc(-c2cc(OC)c(CN3CCN(c4ccc(C(=O)Nc5ccc(OC)cc5)cc4)CC3)c(OC)c2)c1 [B1O060-01, 4-[4-[[4-(5-Ethoxypyridin-3-yl)-2,6-dimethoxyphenyl]methyl]piperazin-1-yl]-N-(4-methoxyphenyl)benzamide]
- ASMS ratio (%) n = 1 [2]: 0.6%
- ASMS ratio (%) n = 2 [2]: −1.8%

Compound: CCOc1cncc(-c2ccccc2CCC(=O)N2CCN(c3ccc(C(=O)NS(=O)(=O)CC45CC6CC(CC(C6)C4)C5)nn3)CC2)c1 [B2A012-01, N-(1-Adamantylmethylsulfonyl)-6-[4-[3-[2-(5-ethoxypyridin-3-yl)phenyl]propanoyl]piperazin-1-yl]pyridazine-3-carboxamide]
- ASMS ratio (%) n = 1 (AS-MS, mixture library, Bcl-2): 1.5%
- ASMS ratio (%) n = 2 (AS-MS, mixture library, Bcl-2): 1.9%

Compound: CCOc1cncc(-c2csc(C(=O)N3CCN(c4ccc(C(=O)NS(=O)(=O)C(C)(C)C)cc4)CC3)c2)c1 [B2L024-01, N-tert-Butylsulfonyl-4-[4-[4-(5-ethoxypyridin-3-yl)thiophene-2-carbonyl]piperazin-1-yl]benzamide]
- ASMS ratio (%) (n = 1): 0.0%
- ASMS ratio (%) (n = 2): 0.0%

Compound: CCOc1cncc(-c2csc(C(=O)N3CCN(c4ccc(C(=O)N(CC)CC)nn4)CC3)c2)c1 [B4J002-01, 6-[4-[4-(5-Ethoxypyridin-3-yl)thiophene-2-carbonyl]piperazin-1-yl]-N,N-diethylpyridazine-3-carboxamide]
- ASMS ratio (%) n = 1 [2]: −2.7%
- ASMS ratio (%) n = 2 [2]: 2.1%

Compound: CCOc1cncc(-c2cc(CN3CCN(c4ccc(C(=O)Nc5ccc(OC)cc5)cc4)CC3)cc(OC(F)(F)F)c2)c1 [B1O064-01, 4-[4-[[3-(5-Ethoxypyridin-3-yl)-5-(trifluoromethoxy)phenyl]methyl]piperazin-1-yl]-N-(4-methoxyphenyl)benzamide]
- ASMS ratio (%) n = 1 [2]: 0.7%
- ASMS ratio (%) n = 2 [2]: −4.0%

Compound: CCOc1cncc(-c2cc(OC)c(CN3CCN(c4ccc(C(=O)NCC(F)(F)F)nn4)CC3)c(OC)c2)c1 [B1K086-01, 6-[4-[[4-(5-Ethoxypyridin-3-yl)-2,6-dimethoxyphenyl]methyl]piperazin-1-yl]-N-(2,2,2-trifluoroethyl)pyridazine-3-carboxamide]
- ASMS ratio (%) n = 2 [1]: 0.0%

Compound: CCOc1cncc(-c2ccc(CN3CCN(c4ccc(C(=O)NCC(F)(F)F)nn4)CC3)cc2F)c1 [B1K078-01, 6-[4-[[4-(5-Ethoxypyridin-3-yl)-3-fluorophenyl]methyl]piperazin-1-yl]-N-(2,2,2-trifluoroethyl)pyridazine-3-carboxamide]
- ASMS ratio (%) n = 1 [1]: 0.8%
- ASMS ratio (%) n = 2 [1]: −0.2%

Compound: CCOc1cncc(-c2cc(CN3CCN(c4ccc(C(=O)NS(=O)(=O)CC56CC7CC(CC(C7)C5)C6)cc4)CC3)cc(OCC)c2)c1 [B2A056-01, N-(1-Adamantylmethylsulfonyl)-4-[4-[[3-ethoxy-5-(5-ethoxypyridin-3-yl)phenyl]methyl]piperazin-1-yl]benzamide]
- ASMS ratio (%) n = 1 (AS-MS, mixture library, Bcl-2): −3.9%
- ASMS ratio (%) n = 2 (AS-MS, mixture library, Bcl-2): 0.2%

Compound: CCOc1cncc(C#Cc2ccccc2CN2CCN(c3ccc(C(=O)NCC(F)(F)F)nn3)CC2)c1 [B1K096-01, 6-[4-[[2-[2-(5-Ethoxypyridin-3-yl)ethynyl]phenyl]methyl]piperazin-1-yl]-N-(2,2,2-trifluoroethyl)pyridazine-3-carboxamide]
- ASMS ratio (%) n = 1 [1]: 0.0%
- ASMS ratio (%) n = 2 [1]: 0.0%

Compound: 4-[4-[[3-(3-Ethoxyphenyl)-5-(trifluoromethoxy)phenyl]methyl]piperazin-1-yl]-N-propylbenzamide [B1M032-01]
- ASMS ratio (%) n = 1 [1]: 0.3%
- ASMS ratio (%) n = 2 [1]: 0.3%

Compound: CCOc1cncc(-c2cc(C(=O)N3CCN(c4ccc(C(=O)NCC(F)(F)F)nn4)CC3)cc(C(F)(F)F)c2)c1 [B1K018-01, 6-[4-[3-(5-Ethoxypyridin-3-yl)-5-(trifluoromethyl)benzoyl]piperazin-1-yl]-N-(2,2,2-trifluoroethyl)pyridazine-3-carboxamide]
- ASMS ratio (%) n = 1 [1]: −0.6%
- ASMS ratio (%) n = 2 [1]: 0.5%

Compound: CCOc1cccc(-c2ccc(C(=O)N3CCN(c4ccc(C(=O)NCC(F)(F)F)cc4)CC3)cc2F)c1 [B1K027-01, 4-[4-[4-(3-Ethoxyphenyl)-3-fluorobenzoyl]piperazin-1-yl]-N-(2,2,2-trifluoroethyl)benzamide]
- ASMS ratio (%) n = 1 [1]: −0.8%
- ASMS ratio (%) n = 2 [1]: −3.6%

Compound: CCOc1cccc(-c2ccccc2CN2CCN(c3ccc(C(=O)NCC(F)(F)F)cc3)CC2)c1 [B1K045-01, 4-[4-[[2-(3-Ethoxyphenyl)phenyl]methyl]piperazin-1-yl]-N-(2,2,2-trifluoroethyl)benzamide]
- ASMS ratio (%) n = 1 [1]: 1.5%
- ASMS ratio (%) n = 2 [1]: −0.1%

Compound: CCOc1cncc(-c2ccc(C(C)N3CCN(c4ccc(C(=O)NS(=O)(=O)CC56CC7CC(CC(C7)C5)C6)cc4)CC3)c(F)c2)c1 (stereo not drawn) [B2A100-01, N-(1-Adamantylmethylsulfonyl)-4-[4-[1-[4-(5-ethoxypyridin-3-yl)-2-fluorophenyl]ethyl]piperazin-1-yl]benzamide]
- ASMS ratio (%) n = 1 (AS-MS, mixture library, Bcl-2): 0.0%
- ASMS ratio (%) n = 2 (AS-MS, mixture library, Bcl-2): 0.0%

Compound: CCOc1cncc(C#Cc2cc(C(=O)N3CCN(c4ccc(C(=O)NCC56CC7CC(CC(C7)C5)C6)nn4)CC3)cc(C(F)(F)F)c2)c1 [B1A020-01, N-(1-Adamantylmethyl)-6-[4-[3-[2-(5-ethoxypyridin-3-yl)ethynyl]-5-(trifluoromethyl)benzoyl]piperazin-1-yl]pyridazine-3-carboxamide]
- ASMS ratio (%) n = 1 [1]: −4.3%
- ASMS ratio (%) n = 2 [1]: −10.5%

Compound: CCOc1cncc(-c2ccc(C(=O)N3CCN(c4ccc(C(=O)NCC(F)(F)F)nn4)CC3)cc2C)c1 [B1K004-01, 6-[4-[4-(5-Ethoxypyridin-3-yl)-3-methylbenzoyl]piperazin-1-yl]-N-(2,2,2-trifluoroethyl)pyridazine-3-carboxamide]
- ASMS ratio (%) n = 1 [1]: 0.0%
- ASMS ratio (%) n = 2 [1]: 0.6%

Compound: CCOc1cccc(-c2cc(CN3CCN(c4ccc(C(=O)NS(C)(=O)=O)cc4)CC3)cc(OC(C)C)c2)c1 [B2I057-01, 4-[4-[[3-(3-Ethoxyphenyl)-5-propan-2-yloxyphenyl]methyl]piperazin-1-yl]-N-methylsulfonylbenzamide]
- ASMS ratio (%) (n = 1): 0.0%
- ASMS ratio (%) (n = 2): 0.0%
